# Data taken from PubChem BioAssay AID2060627 (Molecular Pharmacology Branch, DTP, NCI, 2025).
# System: 156681-154-R-J1-PDC complex spheroid viability
# Assay: Anticancer human tumor 156681-154-R-J1-PDC patient-derived melanoma cell line growth inhibition [CLK]
# Conditions: second compound 3.16 µM; first compound 0.1 µM; hits give low values
# How it was run: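 Multi-cell-type spheroids combined patient-derived tumor cells with HUVEC endothelial cells and human mesenchymal stem cells. Paired agents were dosed in half-log steps down from about clinical Cmax, or from 10 microM where Cmax was unknown.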
# 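Also: spheroids exposed to the agents for seven days; 100% = DMSO vehicle control viability.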
row,Structure (SMILES),"viability, T/C"
1,O=c1[nH]cc(F)c(=O)[nH]1 + CNC(=O)c1ccc(Nc2nc(OC3CCCC3)c3c(-c4ccc5nc(C)oc5c4)c[nH]c3n2)c(OC)c1,42.3%
2,C=CC(=O)N1CCN(c2nc(=O)n(-c3c(C)ccnc3C(C)C)c3nc(-c4c(O)cccc4F)c(F)cc23)C(C)C1 (stereo not drawn) + CNC(=O)c1ccc(Nc2nc(OC3CCCC3)c3c(-c4ccc5nc(C)oc5c4)c[nH]c3n2)c(OC)c1,40.4%
3,Nc1ccccc1NC(=O)c1ccc(CNC(=O)OCc2cccnc2)cc1 + CNC(=O)c1ccc(Nc2nc(OC3CCCC3)c3c(-c4ccc5nc(C)oc5c4)c[nH]c3n2)c(OC)c1,53.3%

# Same assay, conditions: second compound 3.16 µM; first compound 0.316 µM; hits give low values
row,Structure (SMILES),"viability, T/C"
1,COC1C=CCC(C)C(C)S(=O)(=O)NC(=O)c2ccc3c(c2)N(CC2CCC21)CC1(CCCc2cc(Cl)ccc21)CO3 (stereo not drawn) + CNC(=O)c1ccc(Nc2nc(OC3CCCC3)c3c(-c4ccc5nc(C)oc5c4)c[nH]c3n2)c(OC)c1,15.3%
2,Nc1ccccc1NC(=O)c1ccc(CNC(=O)OCc2cccnc2)cc1 + CN1CCN(c2cc(C(=O)Nc3cc4cc(-c5cnn(C)c5)ccc4cn3)ccn2)CC1,0.11%
3,O=c1[nH]cc(F)c(=O)[nH]1 + CNC(=O)c1ccc(Nc2nc(OC3CCCC3)c3c(-c4ccc5nc(C)oc5c4)c[nH]c3n2)c(OC)c1,47.9%
4,C=CC(=O)N1CCN(c2nc(=O)n(-c3c(C)ccnc3C(C)C)c3nc(-c4c(O)cccc4F)c(F)cc23)C(C)C1 (stereo not drawn) + CNC(=O)c1ccc(Nc2nc(OC3CCCC3)c3c(-c4ccc5nc(C)oc5c4)c[nH]c3n2)c(OC)c1,33.4%
5,Nc1ccccc1NC(=O)c1ccc(CNC(=O)OCc2cccnc2)cc1 + CNC(=O)c1ccc(Nc2nc(OC3CCCC3)c3c(-c4ccc5nc(C)oc5c4)c[nH]c3n2)c(OC)c1,35.8%

# Same assay, conditions: second compound 3.16 µM; first compound 1 µM; hits give low values
row,Structure (SMILES),"viability, T/C"
1,COC1C=CCC(C)C(C)S(=O)(=O)NC(=O)c2ccc3c(c2)N(CC2CCC21)CC1(CCCc2cc(Cl)ccc21)CO3 (stereo not drawn) + CNC(=O)c1ccc(Nc2nc(OC3CCCC3)c3c(-c4ccc5nc(C)oc5c4)c[nH]c3n2)c(OC)c1,15.1%
2,Nc1ccccc1NC(=O)c1ccc(CNC(=O)OCc2cccnc2)cc1 + CN1CCN(c2cc(C(=O)Nc3cc4cc(-c5cnn(C)c5)ccc4cn3)ccn2)CC1,0.92%
3,O=c1[nH]cc(F)c(=O)[nH]1 + CNC(=O)c1ccc(Nc2nc(OC3CCCC3)c3c(-c4ccc5nc(C)oc5c4)c[nH]c3n2)c(OC)c1,43.8%
4,C=CC(=O)N1CCN(c2nc(=O)n(-c3c(C)ccnc3C(C)C)c3nc(-c4c(O)cccc4F)c(F)cc23)C(C)C1 (stereo not drawn) + CNC(=O)c1ccc(Nc2nc(OC3CCCC3)c3c(-c4ccc5nc(C)oc5c4)c[nH]c3n2)c(OC)c1,44.2%
5,Nc1ccccc1NC(=O)c1ccc(CNC(=O)OCc2cccnc2)cc1 + CNC(=O)c1ccc(Nc2nc(OC3CCCC3)c3c(-c4ccc5nc(C)oc5c4)c[nH]c3n2)c(OC)c1,23.8%

# Same assay, conditions: second compound 3.16 µM; first compound 3.16 µM; hits give low values
row,Structure (SMILES),"viability, T/C"
1,COC1C=CCC(C)C(C)S(=O)(=O)NC(=O)c2ccc3c(c2)N(CC2CCC21)CC1(CCCc2cc(Cl)ccc21)CO3 (stereo not drawn) + CNC(=O)c1ccc(Nc2nc(OC3CCCC3)c3c(-c4ccc5nc(C)oc5c4)c[nH]c3n2)c(OC)c1,7.52%
2,Nc1ccccc1NC(=O)c1ccc(CNC(=O)OCc2cccnc2)cc1 + CN1CCN(c2cc(C(=O)Nc3cc4cc(-c5cnn(C)c5)ccc4cn3)ccn2)CC1,1.15%
3,O=c1[nH]cc(F)c(=O)[nH]1 + CNC(=O)c1ccc(Nc2nc(OC3CCCC3)c3c(-c4ccc5nc(C)oc5c4)c[nH]c3n2)c(OC)c1,35%
4,C=CC(=O)N1CCN(c2nc(=O)n(-c3c(C)ccnc3C(C)C)c3nc(-c4c(O)cccc4F)c(F)cc23)C(C)C1 (stereo not drawn) + CNC(=O)c1ccc(Nc2nc(OC3CCCC3)c3c(-c4ccc5nc(C)oc5c4)c[nH]c3n2)c(OC)c1,40.1%
5,Nc1ccccc1NC(=O)c1ccc(CNC(=O)OCc2cccnc2)cc1 + CNC(=O)c1ccc(Nc2nc(OC3CCCC3)c3c(-c4ccc5nc(C)oc5c4)c[nH]c3n2)c(OC)c1,3.27%

# Same assay, conditions: second compound 3.16 µM; first compound 10 µM; hits give low values
row,Structure (SMILES),"viability, T/C"
1,COC1C=CCC(C)C(C)S(=O)(=O)NC(=O)c2ccc3c(c2)N(CC2CCC21)CC1(CCCc2cc(Cl)ccc21)CO3 (stereo not drawn) + CNC(=O)c1ccc(Nc2nc(OC3CCCC3)c3c(-c4ccc5nc(C)oc5c4)c[nH]c3n2)c(OC)c1,3.33%
2,Nc1ccccc1NC(=O)c1ccc(CNC(=O)OCc2cccnc2)cc1 + CN1CCN(c2cc(C(=O)Nc3cc4cc(-c5cnn(C)c5)ccc4cn3)ccn2)CC1,1.84%
3,O=c1[nH]cc(F)c(=O)[nH]1 + CNC(=O)c1ccc(Nc2nc(OC3CCCC3)c3c(-c4ccc5nc(C)oc5c4)c[nH]c3n2)c(OC)c1,19.8%
4,C=CC(=O)N1CCN(c2nc(=O)n(-c3c(C)ccnc3C(C)C)c3nc(-c4c(O)cccc4F)c(F)cc23)C(C)C1 (stereo not drawn) + CNC(=O)c1ccc(Nc2nc(OC3CCCC3)c3c(-c4ccc5nc(C)oc5c4)c[nH]c3n2)c(OC)c1,23.4%
5,Nc1ccccc1NC(=O)c1ccc(CNC(=O)OCc2cccnc2)cc1 + CNC(=O)c1ccc(Nc2nc(OC3CCCC3)c3c(-c4ccc5nc(C)oc5c4)c[nH]c3n2)c(OC)c1,0.11%

# Same assay, conditions: second compound 10 µM; first compound 0.0316 µM; hits give low values
row,Structure (SMILES),"viability, T/C"
1,COC1C=CCC(C)C(C)S(=O)(=O)NC(=O)c2ccc3c(c2)N(CC2CCC21)CC1(CCCc2cc(Cl)ccc21)CO3 (stereo not drawn) + CNC(=O)c1ccc(Nc2nc(OC3CCCC3)c3c(-c4ccc5nc(C)oc5c4)c[nH]c3n2)c(OC)c1,30.4%
2,Nc1ccccc1NC(=O)c1ccc(CNC(=O)OCc2cccnc2)cc1 + CN1CCN(c2cc(C(=O)Nc3cc4cc(-c5cnn(C)c5)ccc4cn3)ccn2)CC1,0.03%
3,O=c1[nH]cc(F)c(=O)[nH]1 + CNC(=O)c1ccc(Nc2nc(OC3CCCC3)c3c(-c4ccc5nc(C)oc5c4)c[nH]c3n2)c(OC)c1,51%
4,C=CC(=O)N1CCN(c2nc(=O)n(-c3c(C)ccnc3C(C)C)c3nc(-c4c(O)cccc4F)c(F)cc23)C(C)C1 (stereo not drawn) + CNC(=O)c1ccc(Nc2nc(OC3CCCC3)c3c(-c4ccc5nc(C)oc5c4)c[nH]c3n2)c(OC)c1,41.6%
5,Nc1ccccc1NC(=O)c1ccc(CNC(=O)OCc2cccnc2)cc1 + CNC(=O)c1ccc(Nc2nc(OC3CCCC3)c3c(-c4ccc5nc(C)oc5c4)c[nH]c3n2)c(OC)c1,57.1%

# Same assay, conditions: second compound 10 µM; first compound 0.1 µM; hits give low values
row,Structure (SMILES),"viability, T/C"
1,COC1C=CCC(C)C(C)S(=O)(=O)NC(=O)c2ccc3c(c2)N(CC2CCC21)CC1(CCCc2cc(Cl)ccc21)CO3 (stereo not drawn) + CNC(=O)c1ccc(Nc2nc(OC3CCCC3)c3c(-c4ccc5nc(C)oc5c4)c[nH]c3n2)c(OC)c1,32.5%
2,Nc1ccccc1NC(=O)c1ccc(CNC(=O)OCc2cccnc2)cc1 + CN1CCN(c2cc(C(=O)Nc3cc4cc(-c5cnn(C)c5)ccc4cn3)ccn2)CC1,0.96%
3,O=c1[nH]cc(F)c(=O)[nH]1 + CNC(=O)c1ccc(Nc2nc(OC3CCCC3)c3c(-c4ccc5nc(C)oc5c4)c[nH]c3n2)c(OC)c1,40.5%
4,C=CC(=O)N1CCN(c2nc(=O)n(-c3c(C)ccnc3C(C)C)c3nc(-c4c(O)cccc4F)c(F)cc23)C(C)C1 (stereo not drawn) + CNC(=O)c1ccc(Nc2nc(OC3CCCC3)c3c(-c4ccc5nc(C)oc5c4)c[nH]c3n2)c(OC)c1,30.6%
5,Nc1ccccc1NC(=O)c1ccc(CNC(=O)OCc2cccnc2)cc1 + CNC(=O)c1ccc(Nc2nc(OC3CCCC3)c3c(-c4ccc5nc(C)oc5c4)c[nH]c3n2)c(OC)c1,38.4%

# Same assay, conditions: second compound 10 µM; first compound 0.316 µM; hits give low values
row,Structure (SMILES),"viability, T/C"
1,COC1C=CCC(C)C(C)S(=O)(=O)NC(=O)c2ccc3c(c2)N(CC2CCC21)CC1(CCCc2cc(Cl)ccc21)CO3 (stereo not drawn) + CNC(=O)c1ccc(Nc2nc(OC3CCCC3)c3c(-c4ccc5nc(C)oc5c4)c[nH]c3n2)c(OC)c1,16.2%
2,Nc1ccccc1NC(=O)c1ccc(CNC(=O)OCc2cccnc2)cc1 + CN1CCN(c2cc(C(=O)Nc3cc4cc(-c5cnn(C)c5)ccc4cn3)ccn2)CC1,0.58%
3,O=c1[nH]cc(F)c(=O)[nH]1 + CNC(=O)c1ccc(Nc2nc(OC3CCCC3)c3c(-c4ccc5nc(C)oc5c4)c[nH]c3n2)c(OC)c1,41.2%
4,C=CC(=O)N1CCN(c2nc(=O)n(-c3c(C)ccnc3C(C)C)c3nc(-c4c(O)cccc4F)c(F)cc23)C(C)C1 (stereo not drawn) + CNC(=O)c1ccc(Nc2nc(OC3CCCC3)c3c(-c4ccc5nc(C)oc5c4)c[nH]c3n2)c(OC)c1,37.4%
5,Nc1ccccc1NC(=O)c1ccc(CNC(=O)OCc2cccnc2)cc1 + CNC(=O)c1ccc(Nc2nc(OC3CCCC3)c3c(-c4ccc5nc(C)oc5c4)c[nH]c3n2)c(OC)c1,29.6%

# Same assay, conditions: second compound 10 µM; first compound 1 µM; hits give low values
row,Structure (SMILES),"viability, T/C"
1,COC1C=CCC(C)C(C)S(=O)(=O)NC(=O)c2ccc3c(c2)N(CC2CCC21)CC1(CCCc2cc(Cl)ccc21)CO3 (stereo not drawn) + CNC(=O)c1ccc(Nc2nc(OC3CCCC3)c3c(-c4ccc5nc(C)oc5c4)c[nH]c3n2)c(OC)c1,13.8%
2,Nc1ccccc1NC(=O)c1ccc(CNC(=O)OCc2cccnc2)cc1 + CN1CCN(c2cc(C(=O)Nc3cc4cc(-c5cnn(C)c5)ccc4cn3)ccn2)CC1,0.15%
3,O=c1[nH]cc(F)c(=O)[nH]1 + CNC(=O)c1ccc(Nc2nc(OC3CCCC3)c3c(-c4ccc5nc(C)oc5c4)c[nH]c3n2)c(OC)c1,45.4%
4,C=CC(=O)N1CCN(c2nc(=O)n(-c3c(C)ccnc3C(C)C)c3nc(-c4c(O)cccc4F)c(F)cc23)C(C)C1 (stereo not drawn) + CNC(=O)c1ccc(Nc2nc(OC3CCCC3)c3c(-c4ccc5nc(C)oc5c4)c[nH]c3n2)c(OC)c1,36.3%
5,Nc1ccccc1NC(=O)c1ccc(CNC(=O)OCc2cccnc2)cc1 + CNC(=O)c1ccc(Nc2nc(OC3CCCC3)c3c(-c4ccc5nc(C)oc5c4)c[nH]c3n2)c(OC)c1,22.6%

# Same assay, conditions: second compound 10 µM; first compound 3.16 µM; hits give low values
row,Structure (SMILES),"viability, T/C"
1,COC1C=CCC(C)C(C)S(=O)(=O)NC(=O)c2ccc3c(c2)N(CC2CCC21)CC1(CCCc2cc(Cl)ccc21)CO3 (stereo not drawn) + CNC(=O)c1ccc(Nc2nc(OC3CCCC3)c3c(-c4ccc5nc(C)oc5c4)c[nH]c3n2)c(OC)c1,10.4%
2,Nc1ccccc1NC(=O)c1ccc(CNC(=O)OCc2cccnc2)cc1 + CN1CCN(c2cc(C(=O)Nc3cc4cc(-c5cnn(C)c5)ccc4cn3)ccn2)CC1,3.86%
3,O=c1[nH]cc(F)c(=O)[nH]1 + CNC(=O)c1ccc(Nc2nc(OC3CCCC3)c3c(-c4ccc5nc(C)oc5c4)c[nH]c3n2)c(OC)c1,41.2%
4,C=CC(=O)N1CCN(c2nc(=O)n(-c3c(C)ccnc3C(C)C)c3nc(-c4c(O)cccc4F)c(F)cc23)C(C)C1 (stereo not drawn) + CNC(=O)c1ccc(Nc2nc(OC3CCCC3)c3c(-c4ccc5nc(C)oc5c4)c[nH]c3n2)c(OC)c1,30.9%
5,Nc1ccccc1NC(=O)c1ccc(CNC(=O)OCc2cccnc2)cc1 + CNC(=O)c1ccc(Nc2nc(OC3CCCC3)c3c(-c4ccc5nc(C)oc5c4)c[nH]c3n2)c(OC)c1,2.77%

# Same assay, conditions: second compound 10 µM; first compound 10 µM; hits give low values
row,Structure (SMILES),"viability, T/C"
1,COC1C=CCC(C)C(C)S(=O)(=O)NC(=O)c2ccc3c(c2)N(CC2CCC21)CC1(CCCc2cc(Cl)ccc21)CO3 (stereo not drawn) + CNC(=O)c1ccc(Nc2nc(OC3CCCC3)c3c(-c4ccc5nc(C)oc5c4)c[nH]c3n2)c(OC)c1,5.15%
2,Nc1ccccc1NC(=O)c1ccc(CNC(=O)OCc2cccnc2)cc1 + CN1CCN(c2cc(C(=O)Nc3cc4cc(-c5cnn(C)c5)ccc4cn3)ccn2)CC1,2.47%
3,O=c1[nH]cc(F)c(=O)[nH]1 + CNC(=O)c1ccc(Nc2nc(OC3CCCC3)c3c(-c4ccc5nc(C)oc5c4)c[nH]c3n2)c(OC)c1,20.1%
4,C=CC(=O)N1CCN(c2nc(=O)n(-c3c(C)ccnc3C(C)C)c3nc(-c4c(O)cccc4F)c(F)cc23)C(C)C1 (stereo not drawn) + CNC(=O)c1ccc(Nc2nc(OC3CCCC3)c3c(-c4ccc5nc(C)oc5c4)c[nH]c3n2)c(OC)c1,12.4%
5,Nc1ccccc1NC(=O)c1ccc(CNC(=O)OCc2cccnc2)cc1 + CNC(=O)c1ccc(Nc2nc(OC3CCCC3)c3c(-c4ccc5nc(C)oc5c4)c[nH]c3n2)c(OC)c1,0.3%
